The structures appear in SMILES notation. Some results are limits rather than exact numbers.

The target of the test is T1, human bradykinin B2 receptor (hB2R) (Homo sapiens, UniProt P30411).
T1 sequence (P30411 1-391): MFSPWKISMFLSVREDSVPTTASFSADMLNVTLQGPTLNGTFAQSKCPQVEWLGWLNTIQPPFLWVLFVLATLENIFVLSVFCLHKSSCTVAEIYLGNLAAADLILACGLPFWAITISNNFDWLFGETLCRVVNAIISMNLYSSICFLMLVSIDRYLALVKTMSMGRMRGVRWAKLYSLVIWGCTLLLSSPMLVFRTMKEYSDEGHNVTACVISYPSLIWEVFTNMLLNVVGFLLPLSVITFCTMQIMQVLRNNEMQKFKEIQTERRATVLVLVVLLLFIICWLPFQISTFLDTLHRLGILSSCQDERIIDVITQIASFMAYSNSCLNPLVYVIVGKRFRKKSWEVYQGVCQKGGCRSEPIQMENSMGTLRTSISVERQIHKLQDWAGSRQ
The test can be described thus: human bradykinin B2 receptor calcium mobilization (hB2R-CaM) assay. The note with it: antagonism of bradykinin (EC80) induced calcium mobilization, B2 Bradykinin Receptor Stable Cell Line HTS041C, 25 min pre-incubation; read-out: IC50-value towards human bradykinin B2 receptor (hB2R). Type of test: cell-based. The text has this:
The following cell-based human bradykinin B2 receptor calcium mobilization (hB2R-CaM) assay was used to determine the antagonistic activity of compounds selected from the example compounds Nos. 1 to 107 towards human bradykinin B2 receptor (hB2R). The assay is defined herein as a standard in vitro B2 receptor activity assay, which can be used to determine IC50 values of the compounds according to the present invention, e. g. the compounds shown in Examples 1-13.
The antagonistic activity of compounds according to the present invention was investigated with the hB2R-CaM assay using the B2 Bradykinin Receptor Stable Cell Line HTS041C (Eurofins, St. Charles MO) and the FLIPR Calcium 6 Assay Kit (Molecular Devices, Wokingham, UK) according to the instructions of the providers. CaM assay measurements were performed with a Flexstation 3 System (Molecular Devices) which allows the precise addition of compounds (B2R antagonists) and bradykinin (B2R agonist) to the cells and adjacent continuous recording of the time-dependent CaM assay signals.
HTS041C cells were cultured in high glucose DMEM cell culture medium (Lonza) supplemented with 10% heat-inactivated FBS (PAN Biotech), 10 mM HEPES, Penicillin/Streptomycin (200 U/mL, 200 μg/mL), lx non-essential amino acids (Lonza), and 250 μg/mL G418 (Invivogen) in cell incubator at 37° C. in a 5% CO2 atmosphere. One day before the CaM assay experiments cells were seeded in 200 μL DMEM cell culture medium with reduced FBS (5%) and without G418 on clear bottom black 96 well plates (ThermoFisher #165305). Cell starvation was carried out by incubation (37° C., 5% CO2) of 70.000 cells/well for 24 h to 28 h. Immediately prior calcium dye-loading the medium was carefully aspirated and cells were washed with Hank's balanced salt solution (HBSS, Gibco) containing Ca^2+, Mg^2+ and 20 mM HEPES, adjusted to pH 7.4 (HBSS+).
For calcium dye-loading one FLIPR 6 assay aliquot was dissolved in 20 mL HBSS+. 150 μL of the dye loading solution was added to cell plate and incubated for 120 min at 37° C. and 5% CO2. After dye loading the cell plate was immediately transferred to the pre-warmed (37° C.) Flexstation 3 System for CaM assaying.
Freshly prepared compound (B2 receptor antagonists) dilution series (8 pt, n=2) and bradykinin (B2 receptor agonist) solution in non-binding plates (Costar) were transferred to the Flexstation System (source plate) shortly before starting the experiment. Bradykinin was added in EC80 concentration determined in n>3 preliminary experiments with 8 pt concentration response curves (n=8)). CaM assay was executed by Flexstation 3 System starting with recording of calcium-sensitive dye fluorescence in bottom-read Flex modus with ex/em=485 nm/525 nm, cut off(em)=515 nm After 20 s, 50 μL of 4-fold concentrated compound dilutions were added to the cells resulting in a final DMSO (Sigma) concentration of 0.1% in the cell plate. CaM signals were monitored for 80 s after additions for detection of potential agonistic activities. Prior to bradykinin stimulus compound- and vehicle-treated cells were incubated for 25 min at 37° C. within the Flexstation System. Then 50 μL of a 5-fold concentrated bradykinin solution (HBSS+, 0.1% DMSO) was added to trigger CaM signals (Read out: Max-Min values) which were measured for 80 s post bradykinin stimulus.
IC50 determinations were performed by 4 parameter logistic model curve fitting of the 8 pt (n=2) compound concentration response curves using XLFIT (IDBS) software.
(In general: A change in cytosolic calcium serves as a functional read-out for many receptors and channels.)
Take `CCC1CCC(=O)N([C@@H](C)c2cc(F)cc(Cl)c2COc2cccc3c(-n4cc(F)cn4)cc(C)nc23)C1` (some centres unmarked) [compound 66]: the IC50 (as a rule, the point on the concentration scale where inhibition reaches its midpoint) fell in the range of 0.011 to 0.1 µM.
Turning to `Cc1cc(-n2cc(F)cn2)c2cccc(OCc3c(Cl)cc(F)cc3[C@H](C)N3CCNC(=O)C3=O)c2n1` [compound 50], the IC50 is at most 0.01 µM.
For the compound `Cc1cc(-n2cc(F)cn2)c2cccc(OCc3c(Cl)cc(F)cc3[C@H](C)N3CCNCC3=O)c2n1` [compound 57], the IC50 was in the range of 0.011 to 0.1 µM.
As for `Cc1cc(-c2ncnn2C)c2cccc(OCc3c(Cl)cc(F)cc3[C@H](C)N3CC[C@@H](OC(F)F)C3=O)c2n1` [compound 88], the IC50 was at most 0.01 µM.
For the compound `COC1CN([C@@H](C)c2cc(F)cc(Cl)c2COc2cccc3c(-n4cc(F)cn4)cc(C)nc23)C(=O)O1` (single isomer, unassigned) [compound 51], the IC50 was 0.011 to 0.1 µM.
As to `COC1CN([C@@H](C)c2cc(F)cc(Cl)c2COc2cccc3c(-n4cc(F)cn4)cc(C)nc23)C(=O)O1` (single isomer, unassigned) [compound 52], the IC50 is 0.101 to 0.5 µM.
With `Cc1cc(-c2ncnn2C)c2cccc(OCc3c(Cl)cc(F)cc3[C@H](C)N3CCCCC3=O)c2n1` [compound 26], the IC50 is at most 0.01 µM.
For `Cc1cc(-n2cc(F)cn2)c2cccc(OCc3c(Cl)cc(F)cc3[C@H](C)N3CCNC(C)(C)C3=O)c2n1` [compound 100], the IC50 is 0.011 to 0.1 µM.
Take `Cc1cc(-n2cc(F)cn2)c2cccc(OCc3c(Cl)cc(F)cc3[C@H](C)N3CCCC3=O)c2n1` [compound 13]: the IC50 was in the range of 0.011 to 0.1 µM.
With `Cc1cc(-n2cc(F)cn2)c2cccc(OCc3c(Cl)cc(F)cc3[C@H](C)N3CC[C@@H](OC(F)F)C3=O)c2n1` [compound 89], the IC50 is 0.011 to 0.1 µM.
In the case of `Cc1cc(-n2cc(F)cn2)c2cccc(OCc3c(Cl)cc(F)cc3[C@H](C)N3C[C@@H](O)CC3=O)c2n1` [compound 72], the IC50 is at most 0.01 µM.
For the compound `CCN1C(=O)C(C)N([C@@H](C)c2cc(F)cc(Cl)c2COc2cccc3c(-c4ncnn4C)cc(C)nc23)C1=O` (single isomer, unassigned) [compound 54], the IC50 fell in the range of 0.011 to 0.1 µM.
Next, `Cc1cc(-n2cc(F)cn2)c2cccc(OCc3c(Cl)cc(F)cc3[C@H](C)N3CCN(C)CC3=O)c2n1` [Compound No. 9, (S)-1-(1-(3-chloro-5-fluoro-2-((4-(4-fluoro-1H-pyrazol-1-yl)-2-methylquinolin-8-yloxy)methyl)phenyl)ethyl)-4-methylpiperazin-2-one]: 0.011 to 0.1 µM; `Cc1cc(-n2cc(F)cn2)c2cccc(OCc3c(Cl)cc(F)cc3[C@H](C)N3CCNC3=O)c2n1` [Compound No. 3, (S)-1-(1-(3-chloro-5-fluoro-2-((4-(4-fluoro-1H-pyrazol-1-yl)-2-methylquinolin-8-yloxy)methyl)phenyl)ethyl)imidazolidin-2-one]: 0.011 to 0.1 µM.
Consider `Cc1cc(-n2cc(F)cn2)c2cccc(OCc3c(Cl)cc(F)cc3[C@H](C)N3C(=O)[C@@H](C)NC(=O)[C@@H]3C)c2n1` [compound 99], for which the IC50 is 0.011 to 0.1 µM.
Next, `Cc1cc(-n2cc(F)cn2)c2cccc(OCc3c(Cl)cc(F)cc3[C@H](C)N3CC(=O)N(C4CC4)C3=O)c2n1` [compound 17]: 0.011 to 0.1 µM; `Cc1cc(-c2ncnn2C)c2cccc(OCc3c(Cl)cc(F)cc3[C@H](C)N3CC[C@@H](O)C3=O)c2n1` [compound 43]: 0.011 to 0.1 µM; `Cc1cc(-n2cc(F)cn2)c2cccc(OCc3c(Cl)cc(F)cc3[C@H](C)N3C(=O)N(C4CC4)C(=O)C3C)c2n1` (single isomer, unassigned) [compound 31]: 0.101 to 0.5 µM.
As to `Cc1cc(-n2cc(F)cn2)c2cccc(OCc3c(Cl)cc(F)cc3[C@H](C)N3CCN(C(=O)OC(C)(C)C)[C@H](C)C3=O)c2n1` [compound 79], the IC50 was 0.101 to 0.5 µM.
Take `Cc1cc(-c2ncnn2C)c2cccc(OCc3c(Cl)cc(F)cc3[C@H](C)N3C[C@@H](O)CCC3=O)c2n1` [Compound No. 8, (S)-1-((S)-1-(3-chloro-5-fluoro-2-((2-methyl-4-(1-methyl-1H-1,2,4-triazol-5-yl)quinolin-8-yloxy)methyl)phenyl)ethyl)-5-hydroxypiperidin-2-one]: the IC50 was 0.011 to 0.1 µM.
For `Cc1cc(-c2ncnn2C)c2cccc(OCc3c(Cl)cc(F)cc3[C@H](C)N3C(=O)[C@@H](C)NC(=O)[C@H]3C)c2n1` [compound 105], the IC50 fell in the range of 0.011 to 0.1 µM.
Turning to `Cc1cc(-c2ncnn2C)c2cccc(OCc3c(Cl)cc(F)cc3[C@H](C)N3CCC(C)C3=O)c2n1` (single isomer, unassigned) [compound 60], the IC50 was at most 0.01 µM.
In the case of `Cc1cc(-n2cc(F)cn2)c2cccc(OCc3c(Cl)cc(F)cc3[C@H](C)N3CC[C@H](Cl)C3=O)c2n1` [compound 37], the IC50 is at most 0.01 µM.
For `Cc1cc(-n2cc(F)cn2)c2cccc(OCc3c(Cl)cc(F)cc3[C@H](C)N3CC(C)CC3=O)c2n1` (some centres unmarked) [compound 62], the IC50 lay within 0.011 to 0.1 µM.
Next, `Cc1cc(-n2cc(F)cn2)c2cccc(OCc3c(Cl)cc(F)cc3[C@H](C)N3C[C@@H](C)NC(=O)C3=O)c2n1` [compound 97]: at most 0.01 µM.
`CCN1C(=O)C(C)N([C@@H](C)c2cc(F)cc(Cl)c2COc2cccc3c(-n4cc(F)cn4)cc(C)nc23)C1=O` (single isomer, unassigned) [Compound No. 2]: the IC50 lay in the range of 0.011 to 0.1 µM.
Consider `Cc1cc(-n2cc(F)cn2)c2cccc(OCc3c(Cl)cc(F)cc3[C@H](C)N3CCN(C)C(=O)C3=O)c2n1` [compound 87], for which the IC50 was at most 0.01 µM.
In the case of `Cc1cc(-c2ncnn2C)c2cccc(OCc3c(Cl)cc(F)cc3[C@H](C)N3C[C@@H](O)CC3=O)c2n1` [compound 73], the IC50 was at most 0.01 µM.
`Cc1cc(-n2cc(F)cn2)c2cccc(OCc3c(Cl)cc(F)cc3[C@H](C)N3C[C@H](C)NC(=O)C3=O)c2n1` [compound 86]: the IC50 is at most 0.01 µM.
With `Cc1cc(-c2ncnn2C)c2cccc(OCc3c(Cl)cc(F)cc3[C@H](C)N3CC[C@H](O)C3=O)c2n1` [Compound No. 4, (S)-1-((S)-1-(3-chloro-5-fluoro-2-((2-methyl-4-(1-methyl-1H-1,2,4-triazol-5-yl)quinolin-8-yloxy)methyl)phenyl)ethyl)-3-hydroxypyrrolidin-2-one], the IC50 is at most 0.01 µM.
Consider `Cc1cc(-c2ncnn2C)c2cccc(OCc3c(Cl)cc(F)cc3[C@H](C)N3CCCC3=O)c2n1` [compound 27], for which the IC50 was at most 0.01 µM.
Next, `Cc1cc(-n2cc(F)cn2)c2cccc(OCc3c(Cl)cc(F)cc3[C@H](C)N3CCN[C@@H](C)C3=O)c2n1` [compound 94]: at most 0.01 µM; `Cc1cc(-n2cc(F)cn2)c2cccc(OCc3c(Cl)cc(F)cc3[C@H](C)N3CC(=O)N(C(C)C)C3=O)c2n1` [compound 14]: 0.011 to 0.1 µM.
As for `Cc1cc(-c2ncnn2C)c2cccc(OCc3c(Cl)cc(F)cc3[C@H](C)N3CCC[C@@H](O)C3=O)c2n1` [Compound No. 7, (R)-1-((S)-1-(3-chloro-5-fluoro-2-((2-methyl-4-(1-methyl-1H-1,2,4-triazol-5-yl)quinolin-8-yloxy)methyl)phenyl)ethyl)-3-hydroxypiperidin-2-one], the IC50 is 0.011 to 0.1 µM.
Regarding `CCN1CCN([C@@H](C)c2cc(F)cc(Cl)c2COc2cccc3c(-n4cc(F)cn4)cc(C)nc23)C(=O)C1` [compound 81], the IC50 was at most 0.01 µM.
